# Data taken from patent US7060844B2, “(3Z)-3-(2,3-dihydro-1H-inden-1-ylidene)-1,3-dihydro-2H-indol-2-ones as kinase inhibitors” (Allergan, Inc., priority 2002, dated 2006).
# Key:
# [1] = test system: VEGF induced increases in intracellular calcium levels in HUVEC (human umbilical vein endothelial cells); experiment: VEGF Stimulated Ca++ Signal in Vitro (FLIPR, cell based assay); conditions: for IC50: VEGF stimulation 5 ng/mL, 30 min pre-incubation, 0.01 to 10.0 uM
# Description: VEGF Stimulated Ca^++ Signal in Vitro
# Automated FLIPR (Fluorometric Imaging Plate Reader) technology was used to screen for inhibitors of VEGF induced increases in intracellular calcium levels in fluorescent dye loaded endothelial cells. HUVEC (human umbilical vein endothelial cells) (Clonetics) were seeded in 96-well fibronectin coated black-walled plates overnight @ 37° C./5% CO2. Cells were loaded with calcium indicator Fluo-4 for 45 minutes at 37° C. Cells were washed 4 times (Original Cell Wash, Labsystems) to remove extracellular dye. For screening, cells were pre-incubated with test agents for 30 minutes at a single concentration (10 uM) or at concentrations ranging from 0.01 to 10.0 uM, followed by VEGF stimulation (5 ng/mL). Changes in fluorescence at 516 nm were measured simultaneously in all 96 wells using a cooled CCD camera. Data were generated by determining max-min fluorescence levels for unstimulated, stimulated, and drug treated samples. IC50 values for test compounds were calculated from % inhibition of VEGF stimulated responses in the absence of inhibitor.
# [2] = target: T1, cytoplasmic domain of the human VEGF receptor (VEGFR-2) (Homo sapiens, UniProt P35968); experiment: KDR kinase assay (ELISA, poly-Glu-Tyr substrate, with BSA); format: biochemical; conditions: His-VEGFR-2, 3.6 μM ATP, plates incubated with 1% BSA
# T1 construct: The cytoplasmic domain of the human VEGF receptor (VEGFR-2) was expressed; His (Histidine tag); made in house; host or cells: insect cells (engineered baculovirus)
# Description: The cytoplasmic domain of the human VEGF receptor (VEGFR-2) was expressed as a Histidine-tagged fusion protein following infection of insect cells using an engineered baculovirus. His-VEGFR-2 was purified to homogeneity, as determined by SDS-PAGE, using nickel resin chromatography. Kinase assays were performed in 96 well microtiter plates that were coated overnight with 30 μg of poly-Glu-Tyr (4:1) in 10 mM Phosphate Buffered Saline (PBS), pH 7.2–7.4. The plates were incubated with 1% BSA and then washed four times with PBS prior to starting the reaction. Reactions were carried out in 120 μL reaction volumes containing 3.6 μM ATP in kinase buffer (50 mM Hepes pH 7.4, 20 mM MgCl2, 0.1 mM MnCl2 and 0.2 mM Na3VO4). Test compounds were reconstituted in 100% DMSO and added to the reaction to give a final DMSO concentration of 5%. Reactions were initiated by the addition 0.5 ng of purified protein. Following a ten minute incubation at 25° C., the reactions were washed four times with PBS containing 0.05% Tween-20. 100 μl of a monoclonal anti-phosphotyrosine antibody-peroxidase conjugate was diluted 1:10000 in PBS-Tween-20 and added to the wells for 30 minutes. Following four washes with PBS-Tween-20, 100 μl of 0-Phenylenediamine Dihydrochloride in Phosphate-citrate buffer, containing urea hydrogen peroxide, was added to the wells for 7 minutes as a colorimetric substrate for the peroxidase. The reaction was terminated by the addition of 100 μl of 2.5N H2SO4 to each well and read using a microplate ELISA reader set at 492 nm. IC50 values for compound inhibition were calculated directly from graphs of optical density (arbitrary units) versus compound concentration following subtraction of blank values.
# [3] = Homo sapiens, single concentration 10 uM, VEGF 5 ng/mL
# T1 sequence (P35968 786-1356 limits assumed): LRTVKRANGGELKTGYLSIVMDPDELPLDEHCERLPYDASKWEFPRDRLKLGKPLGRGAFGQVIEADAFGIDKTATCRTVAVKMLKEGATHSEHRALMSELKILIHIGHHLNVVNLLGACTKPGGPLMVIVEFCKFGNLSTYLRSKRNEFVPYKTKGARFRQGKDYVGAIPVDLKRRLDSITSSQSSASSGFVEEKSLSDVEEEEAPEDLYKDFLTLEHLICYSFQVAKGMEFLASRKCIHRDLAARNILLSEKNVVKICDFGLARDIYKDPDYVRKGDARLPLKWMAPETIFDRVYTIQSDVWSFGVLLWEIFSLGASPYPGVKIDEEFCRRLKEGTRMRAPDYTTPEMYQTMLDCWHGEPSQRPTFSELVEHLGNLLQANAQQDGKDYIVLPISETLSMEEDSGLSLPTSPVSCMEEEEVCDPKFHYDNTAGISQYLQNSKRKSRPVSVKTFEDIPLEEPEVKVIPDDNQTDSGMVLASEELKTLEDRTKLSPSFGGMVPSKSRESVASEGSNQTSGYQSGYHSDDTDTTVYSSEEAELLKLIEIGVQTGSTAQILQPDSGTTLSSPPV
IC50 [2] [µM],Compound,IC50 ([1]; Homo sapiens) [µM],"inhibition at 10 µM [1, 3] [%]",IC50 [1] [µM],"VEGF (% inhibition @ 10 uM) (Cell based assay, Ca++) ([1]; single concentration 10 uM, VEGF 5 ng/mL) [%]"
9.78,"CCCC(=O)Nc1ccc2c(c1)C(=C1C(=O)Nc3ccccc31)OC2 [Example 7, N-[3-(2-Oxo-1,2-dihydro-indol-3-ylidene)-1,3-dihydro-isobenzofuran-5-yl]-butyramide]",–,5,–,–
0.66,"CCNc1ccc2c(c1)C(=C1C(=O)Nc3ccccc31)OC2 [Example 11, 3-(6-Ethylamino-3H-isobenzofuran-1-ylidene)-1,3-dihydro-indol-2-one]",0.78,99,–,–
0.065,"Nc1ccc2c(c1)COC2=C1C(=O)Nc2ccccc21 [Example 12, 3-(5-Amino-3H-isobenzofuran-1-ylidene)-1,3-dihydro-indol-2-one]",0.04,98,–,–
0.64,"O=C1Nc2ccccc2C1=C1OCc2ccc(NCCCO)cc21 [Example 14, 3-[6-(3-Hydroxy-propylamino)-3H-isobenzofuran-1-ylidene]-1,3-dihydro-indol-2-one]",0.85,100,–,–
0.037,"CCNc1ccc2c(c1)COC2=C1C(=O)Nc2ccccc21 [Example 15, 3-(5-Ethylamino-3H-isobenzofuran-1-ylidene)-1,3-dihydro-indol-2-one]",0.051,95,–,–
0.063,"CC(=O)Nc1ccc2c(c1)COC2=C1C(=O)Nc2ccccc21 [Example 18, N-[1-(2-Oxo-1,2-dihydro-indol-3-ylidene)-1,3-dihydro-isobenzofuran-5-yl]-acetamide]",0.04,97,–,–
0.17,"CNc1ccc2c(c1)C(=C1C(=O)Nc3ccccc31)OC2 [Example 22, 3-(6-Methylamino-3H-isobenzofuran-1-ylidene)-1,3-dihydro-indol-2-one]",0.29,96,–,–
0.043,"CN(C)c1ccc2c(c1)COC2=C1C(=O)Nc2ccccc21 [Example 23, 3-(5-Dimethylamino-3H-isobenzofuran-1-ylidene)-1,3-dihydro-indol-2-one]",0.096,96,–,–
0.061,"CNc1ccc2c(c1)COC2=C1C(=O)Nc2ccccc21 [Example 24, 3-(5-Methylamino-3H-isobenzofuran-1-ylidene)-1,3-dihydro-indol-2-one]",0.073,98,–,–

# The next lines start with the compound.
Compound,IC50 [2] [µM],IC50 ([1]; Homo sapiens) [µM],"inhibition at 10 µM [1, 3] [%]",IC50 [1] [µM],"VEGF (% inhibition @ 10 uM) (Cell based assay, Ca++) ([1]; single concentration 10 uM, VEGF 5 ng/mL) [%]"
"O=C1Nc2ccccc2C1=C1OCc2ccccc21 [Example 1, 3-(3H-isobenzofuran-1-ylidene)-1,3-dihydro-indol-2-one]",–,0.11,99,–,–
"O=C1Nc2ccc(Cl)cc2C1=C1OCc2ccccc21 [Example 2, 5-Chloro-3-(3H-isobenzofuran-1-ylidene)-1,3-dihydro-indol-2-one]",–,0.05,98,–,–
"Cc1cccc2c1C(=C1OCc3ccccc31)C(=O)N2 [Example 3, 3-(3H-Isobenzofuran-1-ylidene)-4-methyl-1,3-dihydro-indol-2-one]",–,0.685,95,–,–
"O=C1Nc2ccc(F)cc2C1=C1OCc2ccccc21 [Example 4, 5-Fluoro-3-(3H-isobenzofuran-1-ylidene)-1,3-dihydro-indol-2-one]",0.073,0.055,99,–,–
"Nc1ccc2c(c1)C(=C1C(=O)Nc3ccccc31)OC2 [Example 5, 3-(6-Amino-3H-isobenzofuran-1-ylidene)-1,3-dihydro-indol-2-one]",0.13,0.04,98,–,–
"O=C1Nc2ccccc2C1=C1OCc2ccc(NC(=O)C3CC3)cc21 [Example 8, Cyclopropanecarboxylic acid [3-(2-oxo-1,2-dihydro-indol-3-ylidene)-1,3-dihydro-isobenzofuran-5-yl]-amide]",0.85,–,48,–,–
"O=C(CCCCl)Nc1ccc2c(c1)C(=C1C(=O)Nc3ccccc31)OC2 [Example 9, 4-Chloro-N-[3-(2-oxo-1,2-dihydro-indol-3-ylidene)-1,3-dihydro-isobenzofuran-5-yl]-butyramide]",3.25,–,35,–,–
"COc1ccc(CC(=O)Nc2ccc3c(c2)C(=C2C(=O)Nc4ccccc42)OC3)cc1 [Example 10, 2-(4-Methoxy-phenyl)-N-[3-(2-oxo-1,2-dihydro-indol-3-ylidene)-1,3-dihydro-isobenzofuran-5-yl]-acetamide]",8.02,–,50,–,–
"Nc1ccc(CO)c(C(=O)Nc2ccc3c(c2)C(=C2C(=O)Nc4ccccc42)OC3)c1 [Example 13, 5-Amino-2-hydroxymethyl-N-[3-(2-oxo-1,2-dihydro-indol-3-ylidene)-1,3-dihydro-isobenzofuran-5-yl]-benzamide]",1.34,2.1,99,–,–
"Nc1ccc2c(c1)C(=C1C(=O)Nc3ccc(Cl)cc31)OC2 [Example 16, 3-(6-Amino-3H-isobenzofuran-1-ylidene)-5-chloro-1,3-dihydro-indol-2-one]",0.015,0.06,99,–,–
"Nc1ccc2c(c1)CO/C2=C1/C(=O)Nc2ccc(Cl)cc21 [Example 17, 3-(5-Amino-3H-isobenzofuran-1-ylidene)-5-chloro-1,3-dihydro-indol-2-one]",0.139,0.055,98,–,–
"CC(=O)Nc1ccc2c(c1)COC2=C1C(=O)Nc2ccc(Cl)cc21 [Example 19, N-[1-(5-Chloro-2-oxo-1,2-dihydro-indol-3-ylidene)-1,3-dihydro-isobenzofuran-5-yl]-acetamide]",0.066,0.05,99,–,–
"CC(=O)Nc1ccc2c(c1)C(=C1C(=O)Nc3ccc(Cl)cc31)OC2 [Example 20, N-[3-(5-Chloro-2-oxo-1,2-dihydro-indol-3-ylidene)-1,3-dihydro-isobenzofuran-5-yl]-acetamide]",0.39,0.097,99,–,–
"CN(C)c1ccc2c(c1)C(=C1C(=O)Nc3ccccc31)OC2 [Example 21, 3-(6-Dimethylamino-3H-isobenzofuran-1-ylidene)-1,3-dihydro-indol-2-one]",1.69,1.31,94,–,–
"[3-(2-Oxo-1,2-dihydro-indol-3-ylidene)-1,3-dihydro-isobenzofuran-5-yl]-acetamide [Example 6]",1.11,–,–,1.23,97
